Where two headings read alike, the source gives them in different places.
Assays:
[1] = Stability study I: physical degradation and benchmark stability study; assay type: physicochemical
Method: Testing of the chemical degradation was performed in an accelerated stability study setup applying heat as an accelerator/stressor. An Arrhenius analysis was carried out providing an API half-life and a degradation rate at lower temperatures. Physical stability was evaluated at the desired storage temperature (2-8° C.); a benchmark/reference condition was likewise included in the study. The setup of the study is specified below:
Physical degradation and benchmark stability study: 2-8° C., 25° C.
Physical degradation and benchmark stability study: initial, 14 and 28 days,
appearance, pH, c(BCV) recovery (HPLC), purity (HPLC), and liquid particle counting (physical degradation and benchmark stability study),
The results of the physical/benchmark stability for both tested formulations are summarized in Table 11 and Table 12, respectively. The purities of the formulations at different temperatures were determined by comparing chromatograms obtained at different temperatures and time points during the study.

[2] = 7-day dose range-finding study, 2-hour IV infusion (Phase 2): toxicity; assay type: in vivo, Sprague-Dawley CD rats
Method: For Phase 2, Sprague-Dawley CD® rats (5/sex/group) were dosed with brincidofovir via 2-hour IV infusion with 0 [2× sodium phosphate buffer solution (400 mM, pH 8.0±0.04)], 1 or 15 mg/kg on Days 1, 4 and 7. The dose volume was 10 mL/kg/hr for all groups. At the end of the Phase 2 treatment period, all animals were euthanized and necropsied. Phase 2 satellite animals (3/sex/Group 1 and 6/sex/Group 2-3) were similarly dosed and blood samples collected on Days 1 and 7 for toxicokinetic analysis of brincidofovir and one of its metabolites, cidofovir.
For Phase 2 (DRF), the test and control articles were administered, via intravenous 2-hour IV infusion to rats on Days 1, 4, and 7.
During Phase 2, each animal received brincidofovir administrations via intravenous infusion (2-hours) on Days 1, 4 and 7. Animals were maintained on sterile saline at a rate of 0.5 mL/hour between doses. Catheters were tied off after the completion of dose administration on Day 7 (a knot was placed in the catheter and the catheter was receded under the skin) and jackets were removed.
Blood obtained via the orbital sinus (retrobulbar venous plexus) as a terminal procedure under light isoflurane anesthesia was used to analyze hematology and clinical chemistry parameters for all animals at termination of dosing. Animals were fasted overnight prior to blood collection. Animals were not allowed to recover from anesthesia after blood collection.
Blood samples (approximately 0.25 mL) were collected into tubes containing K2EDTA anticoagulant and analyzed for the following using a Siemens ADVIA 120 Hematology Analyzer: Hemoglobin concentration (HGB); Hematocrit (HCT); Erythrocyte count (RBC); Platelet count (PLT); Mean corpuscular volume (MCV); Mean corpuscular hemoglobin (MCH); Mean corpuscular hemoglobin concentration (MCHC); Red cell distribution width (RDW); Total leukocyte count (WBC); Reticulocyte count (RETIC); Differential leukocyte count (Manual differential leukocyte counts were performed for verification and absolute values were calculated if necessary); Neutrophils (ANEU); Lymphocytes (ALYM); Eosinophils (AEOS); Basophils (ABASO); Monocytes (AMONO); Large unstained cells (ALUC);
Blood samples (approximately 1 mL) were collected into tubes with no anticoagulant, allowed to clot, centrifuged to obtain serum and analyzed for the following using a Siemens ADVIA 1800 Chemistry Analyzer: Aspartate aminotransferase (AST) (Kinetic—Modified Bergmeyer); Alanine aminotransferase (ALT) (Kinetic—Modified Bergmeyer); Alkaline phosphatase (ALKP) (Kinetic—Tietz AMP Buffer); Blood urea nitrogen (BUN) (Enzymatic Roch-Ramek with Urease); Creatinine (CREAT) (Jaffe Picric Acid in Alkaline Medium); Glucose (GLU) (Glucose Hexokinase II Method); Cholesterol (CHOL) (Enzymatic esterase/oxidase Trinder Endpoint); Triglycerides (TRIG) (Fossati Three Step Enzymatic—Trinder Endpoint); Total protein (TP) (Biuret Technique); Albumin (ALB) (Bromocresol Green Method); Total bilirubin (TBILI) (Oxidation with Vandate); Sodium (NA^+) (Ion Selective Electrode); Potassium (K^+) (Ion Selective Electrode); Chloride (Cr) (Ion Selective Electrode); Calcium (Ca′) (Michaylova & Ilkova, Arsenazo III); Inorganic phosphorus (PHOS) (Phosphomolybdate—UV Method).
Complete macroscopic examinations were performed on all Phase 2 main study animals. The macroscopic examination included examination of the external surface and all orifices; the external surfaces of the brain and spinal cord; the organs and tissues of the cranial, thoracic, abdominal and pelvic cavities and neck; and the remainder of the carcass for the presence of macroscopic morphologic abnormalities. Animals were discarded after examination; no tissues were collected or preserved.

[3] = IV BCV single ascending dose study: plasma BCV and CDV PK; assay type: in vivo, human; conditions: for Tmax / clearance / half-life / AUC(0-inf) / Cmax / Vd: human; for Tmax: intravenous; for clearance / half-life / AUC(0-inf) / Cmax / Vd: plasma; for Vd: read-out: Vss
Method: Plasma PK samples were collected over 7 days and assayed by HPLC-MS. Plasma BCV PK parameters were determined by non-compartmental analysis and dose proportionality was assessed. Safety assessments were collected over 14 days.

[4] = cited from earlier work
[5] = iv, 10 mg, plasma BCV, Cohort 1, BCV 10 mg 2 h IV infusion, n = 6
[6] = iv, 25 mg, plasma BCV, Cohort 2, BCV 25 mg 2 h IV infusion, n = 6
[7] = iv, 50 mg, plasma BCV, Cohort 3, BCV 50 mg 2 h IV infusion, n = 9
[8] = iv, 50 mg, plasma BCV, Cohort 4, BCV 50 mg 4 h IV infusion, n = 9

With `CCCCCCCCCCCCCCCCOCCCOP(=O)(O)CO[C@H](CO)Cn1ccc(N)nc1=O` [Brincidofovir] as the compound, how does the “Degradation over one month” value ([1]; 2-8 °C) read?
Its value is 6%.

And the “Degradation over one month” value ([1]; 25 °C)?
Its value is 8%.

What about the Purity of brincidofovir ([1]; over one month) of the same compound?
Its Purity of brincidofovir is 99%.

What about the Tolerability ([2]; 1 and 15 mg/kg/day, Days 1, 4 and 7) of the same compound?
The Tolerability was “well tolerated”.

And the Clinical signs ([2]; 1 or 15 mg/kg/day)?
Its Clinical signs is “did not result in any brincidofovir-related clinical signs”.

What about the “Decrease in red cell mass vs controls (to)” value ([2]; end of 7-day dosing phase) of the same compound?
Its value is −4.2%.

And the “Change in reticulocytes vs controls” value ([2]; females, 15 mg/kg)?
Its value is −30%.

What about the “Change in urea (BUN) vs controls” value ([2]; females, 15 mg/kg) of the same compound?
The value was “+29%”.

What about the “Change in total calcium vs controls” value ([2]; females, ≧1 mg/kg) of the same compound?
The value was “+4.9%”.

And the “Change in MCHC vs controls” value ([2]; males, 15 mg/kg)?
Its value is “+2.1%”.

What about the “Change in total calcium vs controls” value ([2]; males, 15 mg/kg) of the same compound?
The value was “+3.8%”.

And the “Change in reticulocytes vs controls” value ([2]; males, 15 mg/kg, Days 1, 4, 7)?
Its value is −33%.

And the “Geometric mean plasma BCV AUC∞ relative to oral 100 mg tablets” value ([3]; BCV IV 50 mg)?
The value was 4.5 fold.

And the “Plasma BCV Cmax and AUCs vs dose” value ([3]; IV single ascending dose)?
Its value is “increased in proportion to dose”.

And the Tmax ([3]; 50 mg, plasma BCV, 4-hour infusion (Cohort 4))?
The Tmax was 2.5 to 4 h.

And the Tmax ([3]; plasma BCV, Cohorts 1-3 (2-hour infusion))?
The Tmax was 2 h.

What about the clearance [3, 5] of the same compound?
Its clearance is 127 mL/min.

What about the half-life [3, 5] of the same compound?
Its half-life is 3.42 h.

And the AUC(0-inf) ([3]; iv, 10 mg, plasma BCV, Cohort 1, BCV 10 mg 2 h IV infusion, n = 6, geometric mean, read-out: AUC∞)?
Its AUC(0-inf) is 1310 ng·h/mL.

And the Cmax ([3]; iv, 10 mg, plasma BCV, Cohort 1, BCV 10 mg 2 h IV infusion, n = 6, geometric mean, read-out: Cmax)?
Its Cmax is 613 ng/mL.

What about the Vd [3, 5] of the same compound?
Its Vd is 16.4 L.

What about the clearance [3, 6] of the same compound?
Its clearance is 144 mL/min.

And the half-life [3, 6]?
The half-life was 5.89 h.

What about the AUC(0-inf) ([3]; iv, 25 mg, plasma BCV, Cohort 2, BCV 25 mg 2 h IV infusion, n = 6, geometric mean, read-out: AUC∞) of the same compound?
The AUC(0-inf) was 2890 ng·h/mL.

And the Cmax ([3]; iv, 25 mg, plasma BCV, Cohort 2, BCV 25 mg 2 h IV infusion, n = 6, geometric mean, read-out: Cmax)?
Its Cmax is 1410 ng/mL.

What about the Vd [3, 6] of the same compound?
The Vd was 19.8 L.

And the clearance [3, 7]?
The clearance was 140 mL/min.

And the half-life [3, 7]?
Its half-life is 6.54 h.

What about the AUC(0-inf) ([3]; iv, 50 mg, plasma BCV, Cohort 3, BCV 50 mg 2 h IV infusion, n = 9, geometric mean, read-out: AUC∞) of the same compound?
The AUC(0-inf) was 5950 ng·h/mL.

What about the Cmax ([3]; iv, 50 mg, plasma BCV, Cohort 3, BCV 50 mg 2 h IV infusion, n = 9, geometric mean, read-out: Cmax) of the same compound?
The Cmax was 2950 ng/mL.

And the Vd [3, 7]?
Its Vd is 19.5 L.

And the clearance [3, 8]?
The clearance was 127 mL/min.

And the half-life [3, 8]?
The half-life was 5.1 h.

What about the AUC(0-inf) ([3]; iv, 50 mg, plasma BCV, Cohort 4, BCV 50 mg 4 h IV infusion, n = 9, geometric mean, read-out: AUC∞) of the same compound?
The AUC(0-inf) was 6570 ng·h/mL.

What about the Cmax ([3]; iv, 50 mg, plasma BCV, Cohort 4, BCV 50 mg 4 h IV infusion, n = 9, geometric mean, read-out: Cmax) of the same compound?
The Cmax was 1590 ng/mL.

And the Vd [3, 8]?
Its Vd is 10.8 L.

And the AUC(0-inf) ([3]; po, 100 mg, BCV oral 100 mg tablets, read-out: Plasma BCV AUC∞)?
Its AUC(0-inf) is 1390 ng·h/mL.

And the Cmax ([3]; po, 100 mg, BCV oral 100 mg tablets, read-out: Plasma BCV Cmax)?
The Cmax was 251 ng/mL.

And the Instance of diarrhea ([4]; single oral dose 100 mg and 200 mg)?
Its Instance of diarrhea is “about 5%”.

What about the Instance of diarrhea ([4]; single oral dose 350 mg) of the same compound?
The Instance of diarrhea was “about 20%”.
